Results taken from patent US6271369A, “Chimeric molecules targeted to viral RNAs” (priority 1997, dated 2001).

How the values were obtained:
TAR:vif RNA = assay: Cleavage of control TAR:vif RNA (no oligo(rA) tract) in Daudi cell extract; type: biochemical, HIV-1; settings: 0.2 or 1.0 μM
From the text: To determine the ability of the 2-5A:AS chimeric molecule SEQ ID NO:1 to induce site-directed RNA cleavage, a target RNA was constructed having an internal 3',5'-oligo(rA) tract. Hybridization between the (dT18) in SEQ ID NO:1 with the oligo(rA) in the target RNA attracts 2-5A-dependent RNase to the target RNA, resulting in a highly specific cleavage event. The experimental target, TAR:A25 :vif RNA, was produced in vitro from a pSP64-derived plasmid containing a partial cDNA for the HIV vif protein interrupted with 25 adenylyl residues. A control TAR:vif RNA was constructed with the A25 tract deleted. These RNA species, which lack 3'-poly(rA) tails, were radiolabeled at their 3'-termini with [5'-^32 p)-pCp by T4 RNA ligase and gel purified prior to the assay. […]
Daudi cell extracts prepared with dounce homogenization were made by the well known method of Wreschner, et al. in a buffer containing 40mM KCl; 10 mM HEPES pH 7.5; 2.5mM magnesium acetate; 0.5mM ATP; 2.5% glycerol and 2.0mM mercaptoethanol. […] Cleavage products were analyzed in 6% polyacrylamide/8M urea gels (30×40×0.04cm).
This property of the 2-5A:AS molecule was determined by experiments employing unmodified 2-5A. […]

2-5A-dependent RNase = assay: Radiobinding (nitrocellulose filter) competition assay for 2-5A-dependent RNase in mouse liver extract; type: binding
Protocol: SEQ ID NO:1, SEQ ID NO:2, Chimeric Molecule 3, and Chimeric Molecule 4 were tested for their ability to bind to 2-5A-dependent RNase in vitro. The affinity of these 2-5A:AS constructs for 2-5A-dependent RNase was established with a highly specific radiobinding assay. This radiobinding assay measured the ability of 2-5A or 2-5A analogs to compete with a ^32 P-labeled 2-5A probe, ppp5'A2'p5'A2'p5'A2'p5'A3'-[^32 p]p5'C3'p, for binding to 2-5A-dependent RNase. The nitrocellulose filter binding assay of Knight et al. (Methods Enzymol. , 79: 216 (1981)) was used to measure the concentrations of 2-5A or the chimeric 2-5A:AS molecule required to compete with the radiolabeled probe, ppp5'A2'-p5'A2'p5'A2'p5A3'[^32 P]p5C3'p, for binding to 2-5A-dependentRNase in a mouse liver extract.
FIGS. 3A and 3B show the relative affinities of SEQ ID NO:1 (.tangle-solidup.) and 2-5A (ppp5'A2'p5'A2'p5'A) (.circle-solid.) for 2-5A-dependent RNase. A measure of 100% binding was found in the absence of any unlabeled oligonucleotide. The data for SEQ ID NO:1 and 2-5A in these figures represent the means and standard deviations from 6 and 7 assays, respectively.

p5'A2'(p5'A2')2 P5'A2'p1[OCH2 (CH2)2 CH2 O]4p1[OCH2 (CH2)2 CH2 O]4p5'pdT3'(p5'dt3')16 p5'dt (AAAATTTTTTTTTTTTTTTTTT; chemistry not fully specified) [SEQ ID NO:1]
specific cleavage in TAR:vif RNA lacking the oligo(rA) tract (TAR:vif RNA): failed to yield a specific cleavage | IC50 / ability to bind 2-5A-dependent RNase compared with unmodified 2-5A (2-5A-dependent RNase; compared with ppp5'A2'p5'A2'p5'A, FIG. 3A): very little, if any, decrease in the IC50 | binding affinity to 2-5A-dependent RNase when annealed to complementary sequence (2-5A-dependent RNase; mixed with excess poly(A), FIG. 3B): no significant change in the binding affinity
